# Test results from patent publication US20250302815A1, “PROTEIN TYROSINE PHOSPHATASE TARGETING LIGANDS” (CALICO LIFE SCIENCES LLC, priority 2021, published 2025).
# Assays:
# [1] = target: T1, PTPN2 (HiBIT-PTPN2 in 293T.109 cells) (Homo sapiens, UniProt P17706); assay: HiBiT Degradation 293T.109 PTPN2 (Nano-Glo HiBiT Lytic Assay); type: cell-based; conditions: 24.0 hours
# T1 construct: expressed in transfected cells; host or cells: 293T.109 (293T WT from ATCC)
# T1 sequence (P17706 1-415): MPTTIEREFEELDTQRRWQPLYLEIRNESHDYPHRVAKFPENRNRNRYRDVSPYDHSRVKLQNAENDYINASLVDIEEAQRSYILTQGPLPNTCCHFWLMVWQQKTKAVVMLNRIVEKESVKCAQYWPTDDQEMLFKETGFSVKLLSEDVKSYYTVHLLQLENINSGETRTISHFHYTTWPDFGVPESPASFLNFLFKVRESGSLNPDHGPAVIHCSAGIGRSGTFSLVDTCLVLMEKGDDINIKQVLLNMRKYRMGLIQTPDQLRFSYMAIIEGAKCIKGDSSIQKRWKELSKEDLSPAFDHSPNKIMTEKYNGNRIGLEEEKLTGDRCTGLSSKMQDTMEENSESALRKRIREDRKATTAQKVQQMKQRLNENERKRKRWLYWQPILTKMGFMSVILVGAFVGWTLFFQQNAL
# Summary of the method: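 Degradation read-out: lytic HiBiT luminescence after 24 h treatment (37 °C, 5% CO2) of 5000 293T cells per well expressing HiBiT-fused PTPN2 from an N-terminal tag. Dosing was 11 points, half-log steps down from 10 μM, in duplicate; vehicle-treated and no-reagent wells served as controls.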
# PTPN2 (B16F10.4 cells) = target: T2, PTPN2 (B16F10.4 cells) (Mus musculus, UniProt Q06180); assay: HiBiT Degradation B16F10.4 PTPN2; type: cell-based; conditions: 24.0 hours
# T2 construct: HiBiT; host or cells: B16F10.4
# T2 sequence (Q06180 1-406): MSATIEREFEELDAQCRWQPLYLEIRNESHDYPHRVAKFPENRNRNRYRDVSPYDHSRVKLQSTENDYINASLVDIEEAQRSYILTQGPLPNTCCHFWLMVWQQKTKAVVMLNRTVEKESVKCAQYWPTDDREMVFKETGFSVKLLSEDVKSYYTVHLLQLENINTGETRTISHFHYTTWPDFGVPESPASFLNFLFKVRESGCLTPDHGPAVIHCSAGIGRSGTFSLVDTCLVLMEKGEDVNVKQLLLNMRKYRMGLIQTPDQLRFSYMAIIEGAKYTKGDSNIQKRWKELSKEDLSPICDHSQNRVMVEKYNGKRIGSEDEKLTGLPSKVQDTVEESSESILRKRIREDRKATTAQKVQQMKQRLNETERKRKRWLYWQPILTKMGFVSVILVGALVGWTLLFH
DC50 [1] [nM],DC50 (PTPN2 (B16F10.4 cells)) [nM],SMILES
< 50,< 50,"CC1(C)C[C@@H](Nc2cccc(-c3sc(C(=O)O)c(OCC(=O)O)c3Cl)c2)CCN1S(=O)(=O)Cc1cccc(NC(=O)NCCCc2ccc3c4c(cccc24)C(=O)N3C2CCC(=O)NC2=O)c1 (stereo partly drawn) [Example 156, 3-(carboxymethoxy)-4-chloro-5-(3-(((4S)-1-((3-(3-(3-(1-(2,6-dioxopiperidin-3-yl)-2-oxo-1,2-dihydrobenzo[cd]indol-6-yl)propyl)ureido)benzyl)sulfonyl)-2,2-dimethylpiperidin-4-yl)amino)phenyl)thiophene-2-carboxylic acid]"
50 to 200,50 to 200,"CC1(C)C[C@@H](Nc2cccc(-c3sc(C(=O)O)c(OCC(=O)O)c3Cl)c2)CCN1S(=O)(=O)Cc1cccc(NC(=O)[C@H]2CC[C@@H](c3ccc4c5c(cccc53)C(=O)N4C3CCC(=O)NC3=O)CC2)c1 (stereo partly drawn) [Example 166, 3-(carboxymethoxy)-4-chloro-5-(3-(((4S)-1-((3-((1s,4R)-4-(1-(2,6-dioxopiperidin-3-yl)-2-oxo-1,2-dihydrobenzo[cd]indol-6-yl)cyclohexane-1-carboxamido)benzyl)sulfonyl)-2,2-dimethylpiperidin-4-yl)amino)phenyl)thiophene-2-carboxylic acid]"
< 50,50 to 200,"CC1(C)C[C@@H](Nc2cccc(-c3sc(C(=O)O)c(OCC(=O)O)c3Cl)c2)CCN1S(=O)(=O)Cc1cccc(NC(=O)CN2CCC(c3ccc4c5c(cccc35)C(=O)N4C3CCC(=O)NC3=O)CC2)c1 (stereo partly drawn) [Example 83, 3-(carboxymethoxy)-4-chloro-5-[3-[[(4S)-1-[[3-[[2-[4-[1-(2,6-dioxo-3-piperidyl)-2-oxo-benzo[cd]indol-6-yl]-1-piperidyl]acetyl]amino]phenyl]methylsulfonyl]-2,2-dimethyl-4-piperidyl]amino]phenyl]thiophene-2-carboxylic acid]"
200 to 1000,200 to 1000,"CC1(C)C[C@@H](Nc2cccc(-c3sc(C(=O)O)c(OCC(=O)O)c3Cl)c2)CCN1S(=O)(=O)Cc1cccc(NC(=O)C2CCN(C(=O)CCc3cccc4c3CN(C3CCC(=O)NC3=O)C4=O)CC2)c1 (stereo partly drawn) [Example 61, 3-(carboxymethoxy)-4-chloro-5-(3-(((4S)-1-((3-(1-(3-(2-(2,6-dioxopiperidin-3-yl)-1-oxoisoindolin-4-yl)propanoyl)piperidine-4-carboxamido)benzyl)sulfonyl)-2,2-dimethylpiperidin-4-yl)amino)phenyl)thiophene-2-carboxylic acid]"
< 50,< 50,"CC1(C)C[C@@H](Nc2cccc(-c3sc(C(=O)O)c(OCC(=O)O)c3Cl)c2)CCN1S(=O)(=O)Cc1cccc(NC(=O)[C@H]2CC[C@H](c3ccc4c5c(cccc53)C(=O)N4C3CCC(=O)NC3=O)CC2)c1 (stereo partly drawn) [Example 165, 3-(carboxymethoxy)-4-chloro-5-(3-(((4S)-1-((3-((1r,4S)-4-(1-(2,6-dioxopiperidin-3-yl)-2-oxo-1,2-dihydrobenzo[cd]indol-6-yl)cyclohexane-1-carboxamido)benzyl)sulfonyl)-2,2-dimethylpiperidin-4-yl)amino)phenyl)thiophene-2-carboxylic acid]"
200 to 1000,50 to 200,CC1(C)C[C@@H](Nc2cccc(-c3sc(C(=O)O)c(OCC(=O)O)c3Cl)c2)CCN1S(=O)(=O)Cc1cccc(N2CCN(CCCc3ccc4c5c(cccc35)C(=O)N4C3CCC(=O)NC3=O)C2=O)c1 (some centres unmarked) [Example 202]
200 to 1000,200 to 1000,"Cc1cn(C2CCC(=O)NC2=O)c2ccc(C3CCN(C(=O)Nc4cccc(CS(=O)(=O)N5CC[C@H](Nc6cccc(-c7sc(C(=O)O)c(OCC(=O)O)c7Cl)c6)CC5(C)C)c4)CC3)cc12 (stereo partly drawn) [Example 211, 3-(carboxymethoxy)-4-chloro-5-[3-[[(4S)-1-[[3-[[4-[1-(2,6-dioxo-3-piperidyl)-3-methyl-indol-5-yl]piperidine-1-carbonyl]amino]phenyl]methylsulfonyl]-2,2-dimethyl-4-piperidyl]amino]phenyl]thiophene-2-carboxylic acid]"

# Second part, the compound before the results:
SMILES,DC50 [1] [nM],DC50 (PTPN2 (B16F10.4 cells)) [nM]
"Cn1c(=O)n(C2CCC(=O)NC2=O)c2ccc(N3CC4(CN(C(=O)Nc5cccc(CS(=O)(=O)N6CC[C@H](Nc7cccc(-c8sc(C(=O)O)c(OCC(=O)O)c8Cl)c7)CC6(C)C)c5)C4)C3)cc21 (stereo partly drawn) [Example 140, 3-(carboxymethoxy)-4-chloro-5-[3-[[(4S)-1-[[3-[[6-[1-(2,6-dioxo-3-piperidyl)-3-methyl-2-oxo-benzimidazol-5-yl]-2,6-diazaspiro[3.3]heptane-2-carbonyl]amino]phenyl]methylsulfonyl]-2,2-dimethyl-4-piperidyl]amino]phenyl]thiophene-2-carboxylic acid]",< 50,50 to 200
CC1(C)C[C@@H](Nc2cccc(-c3sc(C(=O)O)c(OCC(=O)O)c3Cl)c2)CCN1S(=O)(=O)Cc1cccc(NC(=O)[C@H]2[C@@H]3CN(C(=O)COc4cccc5c4CN(C4CCC(=O)NC4=O)C5=O)C[C@@H]32)c1 (some centres unmarked) [Example 101],50 to 200,50 to 200
Cn1c(=O)n(C2CCC(=O)NC2=O)c2ccc(C3CCN(C(=O)Nc4cc(CS(=O)(=O)N5CC[C@@H](Nc6cccc(-c7sc(C(=O)O)c(OCC(=O)O)c7Cl)c6)CC5(C)C)ccc4F)CC3)cc21 (some centres unmarked) [Example 120],50 to 200,< 50
"O=C(O)COc1c(C(=O)O)sc(-c2cccc(NC3CCN(S(=O)(=O)Cc4cccc(NC(=O)CCOCCOCCCc5cccc6c5C(=O)N(C5CCC(=O)NC5=O)C6=O)c4)CC3)c2)c1Cl (centres unmarked) [Example 20, 3-(carboxymethoxy)-4-chloro-5-[3-[[1-[[3-[3-[2-[3-[2-(2,6-dioxo-3-piperidyl)-1,3-dioxo-isoindolin-4-yl]propoxy]ethoxy]propanoylamino]phenyl]methylsulfonyl]-4-piperidyl]amino]phenyl]thiophene-2-carboxylic acid]",200 to 1000,≥ 1000
"CC1Cc2cc(C3CCN(C(=O)Nc4cccc(CS(=O)(=O)N5CC[C@H](Nc6cccc(-c7sc(C(=O)O)c(OCC(=O)O)c7Cl)c6)CC5(C)C)c4)CC3)ccc2N1C1CCC(=O)NC1=O (stereo partly drawn) [Example 95, 3-(carboxymethoxy)-4-chloro-5-[3-[[(4S)-1-[[3-[[4-[1-(2,6-dioxo-3-piperidyl)-2-methyl-indolin-5-yl]piperidine-1-carbonyl]amino]phenyl]methylsulfonyl]-2,2-dimethyl-4-piperidyl]amino]phenyl]thiophene-2-carboxylic acid]",200 to 1000,200 to 1000
"CC1(C)C[C@@H](Nc2cccc(-c3sc(C(=O)O)c(OCC(=O)O)c3Cl)c2F)CCN1S(=O)(=O)Cc1ccc(F)c(NC(=O)C2CN(C(=O)CNc3cccc4c3CN(C3CCC(=O)NC3=O)C4=O)C2)c1 (stereo partly drawn) [Example 148, 3-(carboxymethoxy)-4-chloro-5-[3-[[(4S)-1-[[3-[[1-[2-[[2-(2,6-dioxo-3-piperidyl)-1-oxo-isoindolin-4-yl]amino]acetyl]azetidine-3-carbonyl]amino]-4-fluoro-phenyl]methylsulfonyl]-2,2-dimethyl-4-piperidyl]amino]-2-fluoro-phenyl]thiophene-2-carboxylic acid]",< 50,50 to 200
